Experimental data published in patent US20230002360A1, “Heterocycloalkyl compounds as CCR2 / CCR5 antagonists” (SHENZHEN LINGFANG BIOTECH CO.,LTD, priority 2019, published 2023).

How the values were obtained:
CCR2 = target: T1, CCR2 (Homo sapiens, UniProt P41597); experiment: FLIPR calcium assay, CCR2 cell line; type: cell-based; details: HEK293 host cell, MCP-1 agonist, intracellular calcium signal; read-out: IC50 (nM) test results for FLIPR detection, CCR2
T1 construct: expressed in transfected cells; host or cells: HEK293 (clone C7, passage P6)
Description: (§1) The changes in intracellular calcium signal were detected by FLIPR Calcium assay, and the compound's IC50 value was used as an indicator to evaluate inhibitory effect of the compound on CCR2 and CCR5 receptors.
(§2) 1, Cell line: Cells were seeded and incubated overnight in an incubator at 37° C. and 5% CO2.
(§3) CCR2/CCR5 density: 1 M (20K/Well)
(§4) 2, Reagents: Fluo-4 Direct, (Invitrogen, Cat #f10471)
(§5) The compound was dissolved in DMSO to prepare a 10 mM solution, and the compound solution was placed in a nitrogen gas box.
(§6) MCP-1 was serially diluted with FLIPR assay buffer starting from 0.5 μM at a dilution ratio of 1:2 and a total of 10 gradients were diluted (final 100 nM). RANTES is serially diluted with FLIPR assay buffer starting from 0.5 μM at a dilution ratio of 1:3 and a total of 10 gradients were diluted (final 100 nM). According to the compound plate-map, 20 μL of the serially diluted compound buffers were added to each well of the DRC plate respectively.
(§7) The standard compound was diluted with DMSO 1:3 starting from 1 mM at a dilution ratio of 1:3 and a total of 11 gradients were diluted. The test compound was diluted with DMSO 1:3 starting from 2 mM at a dilution ratio of 1:3 and a total of 11 gradients were diluted.
(§8) c) taking the cell plate from the incubator, and gently distributing 20 μL of 2× Fluo-4 Direct non-washing loading buffer to each well of the 384-well cell culture plate using a pipette, wherein each of wells in the cell plate has a final volume of 40 μL.
(§9) d) Incubating at 37° C. and 5% CO2 for 50 minutes, and at room temperature for 10 minutes.
(§10) e) removing the cell plate from the incubator and placing in FLIPR, and putting the composite plate and the tip box into FLIPR.
(§11) 5) Calculating from Read 90 to the maximum allowable “maximum-minimum”, and calculating the EC80 value of each of cell lines by using FLIPR
(§12) 6) Preparing the reference agonist compound at a concentration of 5×EC80
(§13) 2) Transferring […] of the reference agonist compound at a concentration of 5×EC80 from the composite plate to the cell plate.
(§14) 3) Reading the fluorescence signal.
(§15) 4) Calculating from Read 90 to the maximum allowable “maximum-minimum”.
(§16) h) Analyzing the data and calculating the IC50 value of the compound by using Prism.

CCR5 = target: T2, CCR5 (Homo sapiens, UniProt P51681); experiment: FLIPR calcium assay, CCR5 cell line; type: cell-based; details: HEK293 host cell, RANTES agonist, intracellular calcium signal; read-out: IC50 (nM) test results for FLIPR detection, CCR5
T2 construct: expressed in transfected cells; host or cells: HEK293 (clone C13, passage P4)
Description: as §1, §2, §3, §4, §5, §6, §7, §8, §9, §10, §11, §12, §13, §14, §15, §16

CYP2C9 = target: T3, CYP2C9 (Homo sapiens, UniProt P11712); experiment: Inhibition of human liver microsomal CYP2C9 (diclofenac probe); type: in vitro ADME; details: human liver microsomes, read-out: Half inhibitory concentration IC50, CYP2C9
T3 construct: from tissue; host or cells: human liver microsomes
Description: (§17) Experimental Example 2. Inhibition of human liver microsomal cytochrome P450 isoenzymes (CYP1A2, CYP2C9, CYP2C19, CYP2D6 and CYP3A4) activity
(§18) A total of 5 specific probe substrates of 5 CYP isozymes, which are phenacetin (PHenacetin, CYP1A2), diclofenac (Diclofenac, CYP2C9), (S)-mephenytoin ((S)-MepHenytoin, CYP2C19), dextromethorpHan (CYP2D6), and midazolam (Midazolam, CYP3A4), were incubated with human liver microsomes respectively. Then, reduced nicotinamide adenine dinucleotide phosphate (NADPH) was added to initiate reaction. After the reaction, the sample is processed and quantitatively detected for the concentrations of the five metabolites produced from the specific substrate, acetaminophen (AcetaminopHen), 4′-hydroxydiclofenac (4′-Hydroxydiclofenac), 4′-Hydroxymephenytoin (4′-HydroxymepHenytoin), Dextrorphan (DextrorpHan), and 1′-Hydroxymidazolam (1′-Hydroxymidazolam) by liquid chromatography-quadrupole mass spectrometry (LC-MS/MS) method to calculate the corresponding half inhibitory concentration (IC50).

CYP2C19 = target: T4, CYP2C19 (Homo sapiens, UniProt P33261); experiment: Inhibition of human liver microsomal CYP2C19 ((S)-mephenytoin probe); type: in vitro ADME; details: human liver microsomes, read-out: Half inhibitory concentration IC50, CYP2C19
T4 construct: from tissue; host or cells: human liver microsomes
Description: as §17, §18

CYP1A2 = target: T5, CYP1A2 (Homo sapiens, UniProt P05177); experiment: Inhibition of human liver microsomal CYP1A2 (phenacetin probe); type: in vitro ADME; details: human liver microsomes, read-out: Half inhibitory concentration IC50, CYP1A2
T5 construct: from tissue; host or cells: human liver microsomes
T5 sequence (P05177 1-516): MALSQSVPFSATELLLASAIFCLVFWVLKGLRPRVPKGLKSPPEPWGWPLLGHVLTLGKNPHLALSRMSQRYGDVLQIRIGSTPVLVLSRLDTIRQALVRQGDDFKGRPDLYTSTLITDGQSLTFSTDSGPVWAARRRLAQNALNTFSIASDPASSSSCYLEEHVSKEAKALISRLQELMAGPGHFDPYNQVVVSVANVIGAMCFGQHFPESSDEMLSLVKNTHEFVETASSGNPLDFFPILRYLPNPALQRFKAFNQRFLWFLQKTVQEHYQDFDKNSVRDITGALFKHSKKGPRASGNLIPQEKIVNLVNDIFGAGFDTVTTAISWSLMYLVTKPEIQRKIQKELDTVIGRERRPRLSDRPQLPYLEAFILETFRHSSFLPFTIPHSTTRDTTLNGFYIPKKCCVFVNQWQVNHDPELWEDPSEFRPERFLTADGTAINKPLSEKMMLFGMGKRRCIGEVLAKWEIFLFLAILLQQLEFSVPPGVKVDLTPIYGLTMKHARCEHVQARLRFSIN
Description: as §17, §18

CYP3A4 = target: T6, CYP3A4 (Homo sapiens, UniProt P08684); experiment: Inhibition of human liver microsomal CYP3A4 (midazolam probe); type: in vitro ADME; details: for inhibitory effect on CYP3A4 (in words): conclusion from Table 2; for IC50: human liver microsomes, midazolam, read-out: Half inhibitory concentration IC50, CYP3A4-M
T6 construct: from tissue; host or cells: human liver microsomes
Description: Inhibition of human liver microsomal cytochrome P450 isoenzymes (CYP1A2, CYP2C9, CYP2C19, CYP2D6 and CYP3A4) activity
A total of 5 specific probe substrates of 5 CYP isozymes, which are phenacetin (PHenacetin, CYP1A2), diclofenac (Diclofenac, CYP2C9), (S)-mephenytoin ((S)-MepHenytoin, CYP2C19), dextromethorpHan (CYP2D6), and midazolam (Midazolam, CYP3A4), were incubated with human liver microsomes respectively. Then, reduced nicotinamide adenine dinucleotide phosphate (NADPH) was added to initiate reaction.

CYP2D6 = target: T7, CYP2D6 (Homo sapiens, UniProt P10635); experiment: Inhibition of human liver microsomal CYP2D6 (dextromethorphan probe); type: in vitro ADME; details: human liver microsomes, read-out: Half inhibitory concentration IC50, CYP2D6
T7 construct: from tissue; host or cells: human liver microsomes
Description: as §17, §18

[1] = tested on: human liver microsomal cytochrome P450 isoenzymes; experiment: Inhibition of human liver microsomal cytochrome P450 isoenzymes, overall conclusion; type: in vitro ADME; details: conclusion from Table 2
Description: as §17, §18

T3 sequence (P11712 whole entry): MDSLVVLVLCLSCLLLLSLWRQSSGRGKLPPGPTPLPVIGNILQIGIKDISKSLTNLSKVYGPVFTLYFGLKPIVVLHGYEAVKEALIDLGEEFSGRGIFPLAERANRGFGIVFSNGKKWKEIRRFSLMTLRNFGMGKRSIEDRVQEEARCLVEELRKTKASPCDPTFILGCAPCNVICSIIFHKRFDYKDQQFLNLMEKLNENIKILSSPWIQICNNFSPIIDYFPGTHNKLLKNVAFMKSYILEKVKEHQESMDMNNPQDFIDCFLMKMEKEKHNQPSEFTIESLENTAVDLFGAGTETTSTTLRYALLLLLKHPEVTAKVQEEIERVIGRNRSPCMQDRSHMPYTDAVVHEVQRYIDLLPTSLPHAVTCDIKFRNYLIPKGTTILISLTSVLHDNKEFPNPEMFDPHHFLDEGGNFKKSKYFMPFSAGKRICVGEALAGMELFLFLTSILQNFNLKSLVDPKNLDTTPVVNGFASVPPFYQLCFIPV
T4 sequence (P33261 whole entry): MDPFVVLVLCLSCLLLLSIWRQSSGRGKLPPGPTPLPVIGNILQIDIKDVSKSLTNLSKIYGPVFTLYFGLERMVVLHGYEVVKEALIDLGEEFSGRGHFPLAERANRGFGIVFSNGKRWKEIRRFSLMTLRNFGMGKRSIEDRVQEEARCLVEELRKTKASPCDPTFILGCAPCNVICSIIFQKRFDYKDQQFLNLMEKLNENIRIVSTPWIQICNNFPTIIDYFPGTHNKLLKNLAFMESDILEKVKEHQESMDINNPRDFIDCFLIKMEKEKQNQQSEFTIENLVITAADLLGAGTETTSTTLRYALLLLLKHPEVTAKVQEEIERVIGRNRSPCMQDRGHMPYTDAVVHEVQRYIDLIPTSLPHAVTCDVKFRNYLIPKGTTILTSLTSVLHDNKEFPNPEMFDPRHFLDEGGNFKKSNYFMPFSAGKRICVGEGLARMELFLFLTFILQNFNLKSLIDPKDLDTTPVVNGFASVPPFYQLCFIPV
T6 sequence (P08684 whole entry): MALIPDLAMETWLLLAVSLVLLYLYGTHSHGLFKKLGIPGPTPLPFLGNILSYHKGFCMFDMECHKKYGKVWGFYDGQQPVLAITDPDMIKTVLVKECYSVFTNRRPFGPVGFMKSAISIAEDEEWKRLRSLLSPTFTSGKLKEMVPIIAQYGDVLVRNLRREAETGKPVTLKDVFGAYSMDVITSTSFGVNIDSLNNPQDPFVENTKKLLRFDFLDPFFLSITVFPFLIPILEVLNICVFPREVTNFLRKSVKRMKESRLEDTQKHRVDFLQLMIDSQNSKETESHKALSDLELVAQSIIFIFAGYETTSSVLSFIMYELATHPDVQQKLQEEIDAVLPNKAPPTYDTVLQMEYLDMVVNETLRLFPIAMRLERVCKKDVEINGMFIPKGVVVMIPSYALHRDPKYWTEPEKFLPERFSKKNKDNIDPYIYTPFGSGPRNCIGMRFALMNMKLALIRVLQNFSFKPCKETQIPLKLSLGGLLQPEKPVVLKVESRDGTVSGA
T7 sequence (P10635 whole entry): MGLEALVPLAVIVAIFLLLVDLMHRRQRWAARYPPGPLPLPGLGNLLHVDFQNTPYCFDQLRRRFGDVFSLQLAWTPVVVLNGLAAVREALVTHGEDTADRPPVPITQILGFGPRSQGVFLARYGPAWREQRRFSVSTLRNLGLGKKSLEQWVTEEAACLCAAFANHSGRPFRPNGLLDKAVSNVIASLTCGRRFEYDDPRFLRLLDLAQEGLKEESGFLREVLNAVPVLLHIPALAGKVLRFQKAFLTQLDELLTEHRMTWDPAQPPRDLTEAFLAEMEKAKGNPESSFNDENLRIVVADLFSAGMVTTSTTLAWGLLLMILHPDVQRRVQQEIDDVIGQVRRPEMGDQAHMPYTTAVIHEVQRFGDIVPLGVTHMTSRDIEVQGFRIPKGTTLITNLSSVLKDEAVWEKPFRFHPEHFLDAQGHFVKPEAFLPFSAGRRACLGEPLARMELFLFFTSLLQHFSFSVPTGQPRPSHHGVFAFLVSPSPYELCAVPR
T2 sequence (P51681 whole entry, species assumed): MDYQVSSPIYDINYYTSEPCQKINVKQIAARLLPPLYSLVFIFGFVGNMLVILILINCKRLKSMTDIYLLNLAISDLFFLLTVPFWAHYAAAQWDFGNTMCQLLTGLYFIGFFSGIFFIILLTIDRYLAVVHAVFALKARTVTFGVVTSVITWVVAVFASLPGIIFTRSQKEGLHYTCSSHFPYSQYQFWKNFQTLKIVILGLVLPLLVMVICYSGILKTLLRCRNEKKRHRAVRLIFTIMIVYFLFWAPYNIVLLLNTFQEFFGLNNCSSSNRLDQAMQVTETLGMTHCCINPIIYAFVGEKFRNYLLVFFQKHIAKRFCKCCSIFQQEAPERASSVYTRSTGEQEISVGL
T1 sequence (P41597 whole entry, species assumed): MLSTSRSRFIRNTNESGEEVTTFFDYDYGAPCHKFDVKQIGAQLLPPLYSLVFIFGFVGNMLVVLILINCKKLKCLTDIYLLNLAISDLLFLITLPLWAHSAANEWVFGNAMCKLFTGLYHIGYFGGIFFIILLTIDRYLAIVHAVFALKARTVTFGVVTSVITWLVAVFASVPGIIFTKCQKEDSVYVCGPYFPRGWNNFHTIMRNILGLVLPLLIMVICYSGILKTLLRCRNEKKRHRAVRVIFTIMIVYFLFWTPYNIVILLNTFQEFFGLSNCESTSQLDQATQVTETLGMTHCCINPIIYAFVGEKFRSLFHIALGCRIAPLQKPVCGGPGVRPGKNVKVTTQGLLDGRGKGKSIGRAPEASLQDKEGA

SMILES | IC50 (CCR2) [nM] | IC50 (CCR5) [nM] | further results
CCCCOCCOc1ccc(-c2ccc3c(c2)/C=C(/C(=O)Nc2ccc([S@+]([O-])Cc4c(C)ncn4CC)cc2)CCCN3CC2COCCO2)cc1 (some centres unmarked) [WX025] | 0.69 | 1.38 | 
CCCCOCCOc1ccc(-c2ccc3c(c2)/C=C(/C(=O)Nc2ccc([S@+]([O-])Cc4c(C)ncn4CC)cc2)CCCN3CC2CCOC2)cc1 (some centres unmarked) [WX014] | 3.78 | 6.28 | 
CCCCOCCOc1ccc(-c2ccc3c(c2)/C=C(/C(=O)Nc2ccc([S@+]([O-])Cc4c(C)ncn4CC)cc2)CCCN3C[C@H]2CCCO2)cc1 [WX028] | 1.19 | 3.15 | 
CCCCOCCOc1ccc(-c2ccc3c(c2)C=C(C(=O)Nc2ccc([S@+]([O-])Cc4c(C)ncn4CC)cc2)CCN3CC2CCN(C)CC2)cc1 [WX018] | 17.9 | 3.35 | 
CCCCOCCOc1ccc(-c2ccc3c(c2)/C=C(/C(=O)Nc2ccc([S@+]([O-])Cc4c(C)ncn4CC)cc2)CCCN3CC2CCCO2)cc1 (some centres unmarked) [WX027] | 0.41 | 1.44 | 
CCCCOCCOc1ccc(-c2ccc3c(c2)/C=C(/C(=O)Nc2ccc([S@+]([O-])Cc4c(C)ncn4CC)cc2)CCCN3CC2CCOCC2)cc1 [WX001] | 1.33 | 4.25 | IC50 (CYP2C9): > 50000 nM; IC50 (CYP2C19): 1420 nM; IC50 (CYP1A2): > 50000 nM; inhibitory effect on CYP3A4 (in words) (CYP3A4): no inhibitory effect; IC50 (CYP3A4): > 50000 nM; IC50 (CYP2D6): > 50000 nM
CCCCOCCOc1ccc(-c2ccc3c(c2)/C=C(/C(=O)Nc2ccc([S@@+]([O-])Cc4c(C)ncn4CC)cc2)CCCN3CC2CCOCC2)cc1 [WX002] | 3 |  | IC50 (CYP2C9): 10900 nM; IC50 (CYP2C19): > 50000 nM; risk of inhibiting the activity of human liver microsomal cytochrome P450 isoenzymes (in words) [1]: no risk of inhibiting the activity; IC50 (CYP1A2): > 50000 nM; IC50 (CYP3A4): 13300 nM; IC50 (CYP2D6): > 50000 nM
CCCCOCCOc1ccc(-c2ccc3c(c2)/C=C(/C(=O)Nc2ccc([S@+]([O-])Cc4c(C)ncn4CC)cc2)CCCN3CC2CCOC2)cc1 (some centres unmarked) [WX013] | 3.11 | 5.45 | 
CCCCOCCOc1ccc(-c2ccc3c(c2)C=C(C(=O)Nc2ccc([S@+]([O-])Cc4c(C)ncn4CC)cc2)CCN3CC2CCCOC2)cc1 (some centres unmarked) [WX003] | 37 | 8.27 | 
CCCCOCCOc1ccc(-c2ccc3c(c2)/C=C(/C(=O)Nc2ccc([S@@+]([O-])Cc4cncn4CCC)cc2)CCCN3CC(C)C)cc1 [(CVC), Cenicriviroc, reference compound] |  |  | IC50 (CYP2C9): > 50000 nM; IC50 (CYP2C19): > 50000 nM; IC50 (CYP1A2): > 50000 nM; inhibitory effect on CYP3A4 (in words) (CYP3A4): strong inhibitory effect; IC50 (CYP3A4): 750 nM; IC50 (CYP2D6): > 50000 nM
CCCCOCCOc1ccc(-c2ccc3c(c2)/C=C(/C(=O)Nc2ccc([S@+]([O-])Cc4c(C)ncn4CC)cc2)CCCCN3CC2CCCOC2)cc1 (some centres unmarked) [WX007] | 6.76 | 6.18 | 
CCCCOCCOc1ccc(-c2ccc3c(c2)/C=C(/C(=O)Nc2ccc([S@+]([O-])Cc4c(C)ncn4CC)cc2)CCCN3CC2CCCCO2)cc1 (some centres unmarked) [WX008] | 3.4 | 6.04 | 
CCCCOCCOc1ccc(-c2ccc3c(c2)/C=C(/C(=O)Nc2ccc([S@+]([O-])Cc4c(C)ncn4CC)cc2)CCCCN3CC2COC2)cc1 [WX005] | 9.2 | 4.2 | 
CCCCOCCOc1ccc(-c2ccc3c(c2)/C=C(/C(=O)Nc2ccc([S@+]([O-])Cc4c(C)ncn4CC)cc2)CCCN3CC2COC2)cc1 [WX004] | 3.04 | 6.3 | 
CCCCOCCOc1ccc(-c2ccc3c(c2)/C=C(/C(=O)Nc2ccc([S@@+]([O-])Cc4c(C)ncn4CC)cc2)CCCN3CC2CCOCC2)cc1 [WX017] | 2.47 |  | 
CCCCOCCOc1ccc(-c2ccc3c(c2)/C=C(/C(=O)Nc2ccc([S@+]([O-])Cc4c(C)ncn4CC)cc2)CCCN3CC2COCCO2)cc1 (some centres unmarked) [WX026] | 0.69 | 1.37 | 
CCCCOCCOc1ccc(-c2ccc3c(c2)/C=C(/C(=O)Nc2ccc([S@+]([O-])Cc4c(C)ncn4CC)cc2)CCCN3CC2CCN(C)CC2)cc1 [WX009] | 4.38 | 6.78 | 
CCCCOCCOc1ccc(-c2ccc3c(c2)/C=C(/C(=O)Nc2ccc([S@@+]([O-])Cc4cncn4CCC)cc2)CCCN3CC2CC2)cc1 [Reference A, reference compound] |  |  | IC50 (CYP2C9): > 50000 nM; IC50 (CYP2C19): > 50000 nM; IC50 (CYP1A2): > 50000 nM; inhibitory effect on CYP3A4 (in words) (CYP3A4): strong inhibitory effect; IC50 (CYP3A4): 786 nM; IC50 (CYP2D6): > 50000 nM
CCCCOCCOc1ccc(-c2ccc3c(c2)/C=C(/C(=O)Nc2ccc([S@+]([O-])Cc4c(C)ncn4CC)cc2)CCCCN3CC2CCCOC2)cc1 (some centres unmarked) [WX006] | 7.51 | 8.44 | 
